The source of these data is patent publication US20080288176A1 (priority 2005, published 2008).

The nature of data set [1]: Serum nitrate concentration (NO release) after oral dosing. In kind it is in vivo, rat. Particulars: male Wistar rats, oral gavage, at 6 hours. As for the experimental part: (§1) Table 1 is a summary of the protocol for a study which was conducted in male Wistar rats weighing 275-300 grams. The animals were allowed to acclimatize for at least five days prior to the commencement of the study. The study protocol was approved by the local animal ethics committee.
(§2) The animals were fasted overnight prior to test substance administration. The test substance was administered orally by gavage on the morning of the study day. All test animals had blood collected during the test period in both EDTA (ethylenediaminetetraacetic acid) tubes and SST (Serum Separator Tubes) at 1, 3 and 6 hours after dosing. Blood was collected into EDTA tubes only at 1 and 3 hours by tail tip amputation. Volume of blood collected was between 0.5 and 1 mL at each of these collections. The final collection was by puncture of the abdominal vena cava under isoflurane general anesthesia. Final blood collection was targeted as follows: 1st EDTA #1—1.5 mL; 2nd SST—1.5 mL; 3rd EDTA #2—as much as possible.
EDTA samples were centrifuged, and the plasma portion was collected and frozen at −80° C. SST samples were incubated at 37° C. for approximately 45 minutes, centrifuged, and the serum was collected and frozen at −80° C. until analysis.

Data set [2] relates to cardiac tissue prostacyclin (PGI2) to thromboxane A2 (TXB2) ratio. Description: Cardiac tissue prostacyclin to thromboxane ratio. Particulars: male Wistar rats; for Cardiac Tissue PGI2/TXB2, Mean: oral gavage, heart removed 6 hours after dosing. In kind it is in vivo, rat.
Excerpt: Myocardial infarction and ischemic events in high risk patients led one of the most popular COX-2 inhibitors to its demise (Bresalier et al., 2005). Non-selective NSAIDS may also cause similar problems due to their ability to inhibit COX-2. […] Adenosine diphosphate (ADP) generation is an indicator of myocardial infarction which has no connection with the arachidonic acid cascade (Borna et al., 2005). […] Long term NSAID use has been linked to kidney damage and hypertension (Zafirovska et al., 1993). […] This was associated with an increase in the urine the ratio of alanine-amino-peptidase (AAP) and creatinine.
as §1
All rats were euthanized by removal of the heart 6 hours after initial dosing, following final blood collections. Immediately after terminal blood collections were complete, the thorax was opened and the heart removed. The heart was cut in half longitudinally. Half of the heart was placed in formalin for histological examination. The other half was quickly rinsed in saline and then freeze-clamped (crushed between the jaws of a pair of modified tongs, cooled by liquid nitrogen). An entire kidney was freeze-clamped. The other kidney was left in situ for examination by the pathologist. Freeze-clamped tissues were wrapped in labeled aluminum foil and stored in liquid nitrogen until they could be transferred to a −80° C. freezer. Freeze-clamped tissues were shipped on dry ice to NOVOKIN for analysis.

The subject of data set [3] is male Wistar rats. Description: Gastric ulcer index after oral dosing. In kind it is in vivo, rat. Particulars: for Ulcer Indices, Mean: oral gavage, naproxen 250 mg/kg or molar equivalent (ROF 250 mg/kg), 6 h after dosing, mean aggregate gastric ulcer length; for Ulcerogenicity (in words): oral, 6 h. As for the experimental part: as §1, §2
Each animal from all groups underwent a full necropsy under the supervision of a board certified veterinary pathologist. The stomach of each rat was cut along the greater curvature, contents removed into a polypropylene (Falcon) tube, the mucosa rinsed with saline and any obvious ulcers or erosions were measured along the longest axis. This measurement was recorded for each ulcer or erosion observed in each stomach. The falcon tubes and their contents were frozen at −80° C. and shipped to Novokin on dry ice for analysis.
The aggregate length of all gastric ulcers found in a given animal was calculated. The mean aggregate ulcer length across animals in a group was calculated. This mean value was reported as the ulcer index for that group.
The ulcer index of each modified drug was compared with the ulcer index of its associated parent drug and the controls using analysis of variance and Duncan's multiple range test for pairwise comparisons. Statistical analysis was done using SAS® (SAS Institute Inc., Cary, N.C.).

Data set [4] is described as follows: Hydrolysis in human intestinal microsomes. It is filed as in vitro ADME. Particulars: for intestinal microsomal activity: model input. The source says: The physiologically based pharmacokinetic/pharmacodynamic model of the present invention contains a series of compartments that describe the time course of a nonsteroidal anti-inflammatory prodrug, its active metabolites and nitric oxide release in intestine, liver, kidneys, blood/plasma and heart after prodrug administration. The time course of the prodrug, its active metabolites and nitric oxide release can be simulated using a series of in vitro and in silico inputs. The stability of each component in the gastrointestinal lumen is estimated using data collected from artificial gastric and intestinal juice. Intestinal metabolism is estimated using intestinal microsomes and absorption rate is estimated using permeability data collected from a cell monolayer such as Caco-2. Hepatic elimination is estimated using liver microsomes and stability in plasma is calculated using degradation of each component in the media. Plasma protein binding can either be measured using a standardized in vitro method or it can be estimated using an in silico method. The distribution of each component in various parts of the body is estimated using an in silico method. The rate of nitric oxide release is estimated using an in vitro endothelial cell model. The time course of prodrug, its active metabolites and nitric oxide can be simulated in human and animal using this physiologically based pharmacokinetic/pharmacodynamic model provided that the corresponding in vitro and in silico data are used as inputs.
The selection of in vitro tests is designed to provide parameters for the above mentioned model. The use of an inappropriate test would result in wrong predictions. For example, Knaus et al. (2005) used guinea pig serum and porcine esterases to hydrolyze their O^2-substituted diazeniumdiolate derivatives of ASPIRIN, as disclosed in U.S. Ser. No. 60/681,842. These tests provided very little information in terms of in vivo human NO-NSAID metabolism rate and the extent to which metabolic conversion to NO donor and NSAID occurred. […] The half-life values were less than one minute. Based on these observations, it has become apparent that prior to entering the systemic circulation, it is likely that the NO-NSAID would have been hydrolyzed in the enterocytes and little or no NO-NSAID would have been detected in the blood stream. Furthermore, the release of NO will commence immediately once the NO donor is detached from the NSAID.
Representative in vitro tests or in silico estimates include: (a) pKa estimation or measurement; (b) Log P measurement or in silico estimation; (c) Solubility in various physiological fluids; (d) Permeability. Caco-2 and/or NOVOKIN's proprietary animal and human cell lines can be used to obtain this parameter; (e) Metabolic rate in the intestine and liver. Human or animal intestinal microsomes, S9 fraction, and cytosol can be used for this purpose. Human or animal hepatocytes, liver microsomes, S9 fraction, and cytosol can also be used; (f) Hydrolysis in human or animal plasma; (g) Serum or plasma protein binding. It can be measured in vitro or estimated in silico; (h) The rate of NO release; (i) Existing pharmacokinetic and pharmacodynamic data of NSAID or a biocompatible agent; (j) Existing NO release rate of known diazeniumdiolate if applicable; (k) Stability in gastric and intestinal environment; and (l) In silico volume of distribution estimation.
Whenever in vitro estimate is attainable, the in vitro results will be used, for example, plasma protein binding. Methods reported by Bowalgaha & Miners (2001), Martignoni et al. (2006), Tong et al. (2001) and Thulesen et al. (1999) were used for in vitro and in vivo scale-up for clearance in the intestine, absorption rate constant and hepatic clearance. The simulation begins with no material in all compartments except for the initial bolus in one compartment (typically the stomach compartment). The simulation then estimates the changing distribution of the material with time.

SMILES strings stand for the structures.

`COc1ccc2cc([C@H](C)C(=O)OCCCCO[N+](=O)[O-])ccc2c1` [AZD 3582]: the “Serum Nitrate Concentrations, Mean” value in data set [1] came to 460.667. For the same compound, the “PGI2/TXA2 ratio comparison (in words)” value in data set [2] (cardiac tissue) is reported as “lower ratios than vehicle”. In data set [2], the “Cardiac Tissue PGI2/TXB2, Mean” value is reported as 3.432. Also, in data set [3], the “Ulcer Indices, Mean” value was 3.444 and the “Ulcerogenicity (in words)” value was “severely ulcerogenic”. Also, in data set [4], the intestinal microsomal activity worked out at 554 mL/min/organ.

For `COc1ccc2cc(C(C)C(=O)OCON=[N+]([O-])N3CCCC3)ccc2c1` (stereo not drawn) [PYRO-NO-NAP, pyrrolidino-diazeniumdiolate-naproxen], in data set [1], the “Serum Nitrate Concentrations, Mean” value is given as 389.000. For the same compound, the “Cardiac Tissue PGI2/TXB2, Mean” value in data set [2] is 4.937. Moreover, in data set [3], the “Ulcer Indices, Mean” value came to 1.450 and the “Ulcerogenicity (in words)” value was “not significantly different from vehicle”. Also, in data set [4], the “intestinal molar percent conversion to Naproxen” value is reported as 87% and the intestinal microsomal activity is reported as 188 mL/min/organ.
